Data as given in patent US20260297042A1, “BIARYLAMIDE DERIVATIVES AND THEIR USE AS PKMYT1 INHIBITORS” (CANCER RESEARCH TECHNOLOGY LIMITED, priority 2023, published 2026).

Key:
WEE1 = biological target: T1, WEE1 (Homo sapiens, UniProt P30291); assay: Selectivity versus WEE1 assay (ADP-Glo enzymatic assay); format: biochemical; details: for IC50: ADP-Glo; for PKMYT1 vs. WEE1 selectivity: fold difference in selectivity for PKMYT1 over WEE1
T1 construct: purchased Thermo Fisher PR7373A
Summary of the method: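 Compounds were pre-dispensed, enzyme (15 nM final) was added in pH 7.5 HEPES buffer, and ATP ([…]) then started a 60 min incubation at 26° C. Afterwards ADP-Glo reagents were added in turn and luminescence was measured to derive IC50 values.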

Human PKMYT1 = biological target: T2, Human PKMYT1 (Homo sapiens, UniProt Q99640); assay: PKMYT1 biochemical ADP-Glo enzymatic assay; details: ADP-Glo
T2 construct: Human PKMYT1 75-362 was cloned as a TEV cleavable 6xHis fusion; 6xHis (TEV cleavable) (cleaved yes); made in house; host or cells: bacterial cells
T2 sequence (Q99640 75-362): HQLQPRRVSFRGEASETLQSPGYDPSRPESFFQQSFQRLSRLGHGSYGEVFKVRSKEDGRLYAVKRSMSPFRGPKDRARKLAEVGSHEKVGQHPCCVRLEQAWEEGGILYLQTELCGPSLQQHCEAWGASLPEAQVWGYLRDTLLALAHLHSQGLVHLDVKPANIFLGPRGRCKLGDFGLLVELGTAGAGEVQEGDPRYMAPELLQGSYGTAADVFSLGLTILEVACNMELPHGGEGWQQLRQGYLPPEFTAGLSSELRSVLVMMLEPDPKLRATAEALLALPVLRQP
Summary of the method: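 Compounds were titrated over 10 points (3-fold steps), then 15 nM purified PKMYT1 kinase domain (aa 75-362) and 500 µM ATP were added in pH 7.5 HEPES buffer. After 60 min at 26 °C, remaining ATP was depleted and ADP converted to luminescence for IC50 fitting.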

[1] = 15 nM WEE1, 60 minutes at 26° C., banded
[2] = banded, ">N" = at least in this band but could be higher
[3] = 15 nM PKMYT1 kinase domain, 500 µM ATP, 60 minutes at 26° C., banded
[4] = PKMYT1 kinase domain 15 nM, banded values

T1 sequence (P30291 whole entry): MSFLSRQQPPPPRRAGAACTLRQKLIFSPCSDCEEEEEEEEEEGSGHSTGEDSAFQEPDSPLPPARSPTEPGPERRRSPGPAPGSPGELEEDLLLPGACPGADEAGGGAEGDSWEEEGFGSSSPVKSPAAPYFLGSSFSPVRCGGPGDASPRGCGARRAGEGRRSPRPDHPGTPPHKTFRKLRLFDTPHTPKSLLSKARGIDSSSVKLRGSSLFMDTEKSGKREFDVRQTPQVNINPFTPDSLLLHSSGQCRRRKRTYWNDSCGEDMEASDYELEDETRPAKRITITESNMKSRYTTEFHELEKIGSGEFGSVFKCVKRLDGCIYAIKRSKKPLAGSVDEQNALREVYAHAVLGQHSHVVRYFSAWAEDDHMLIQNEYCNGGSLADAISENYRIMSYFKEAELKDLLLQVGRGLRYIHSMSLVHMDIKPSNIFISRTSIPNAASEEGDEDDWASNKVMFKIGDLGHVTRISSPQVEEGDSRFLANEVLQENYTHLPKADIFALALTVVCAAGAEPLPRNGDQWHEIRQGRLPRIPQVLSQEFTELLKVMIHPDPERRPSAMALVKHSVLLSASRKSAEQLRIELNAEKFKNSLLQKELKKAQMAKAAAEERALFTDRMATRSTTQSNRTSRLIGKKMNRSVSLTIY

| IC50 (WEE1; [1]) | PKMYT1 vs. WEE1 selectivity (WEE1; [2]) | IC50 (Human PKMYT1; [3]) | IC50 (WEE1; WEE1 15 nM, banded values) | PKMYT1 vs. WEE1 selectivity (WEE1; banded) | IC50 (Human PKMYT1; [4]) | SMILES |
| --- | --- | --- | --- | --- | --- | --- |
| > 11 µM | W (10-<100 fold) | 1 to 11 µM | – | – | – | Cc1ccc(O)c(C)c1NC(=O)c1cnc(NCc2ccccc2C2CC2)s1 [BAA-356, 2-((2-cyclopropylbenzyl)amino)-N-(3-hydroxy-2,6-dimethylphenyl)thiazole-5-carboxamide] |
| > 11 µM | X (100-<1000 fold) | 0.05 to 1 µM | – | – | – | Cc1ccc(O)c(C)c1NC(=O)c1cnc(NCc2cc3ccccc3[nH]2)s1 [BAA-357, 2-(((1H-indol-2-yl)methyl)amino)-N-(3-hydroxy-2,6-dimethylphenyl)thiazole-5-carboxamide] |
| > 11 µM | X (100-<1000 fold) | 0.05 to 1 µM | – | – | – | Cc1ccc(O)c(C)c1NC(=O)c1cnc(NCc2nccs2)s1 [BAA-358, N-(3-hydroxy-2,6-dimethylphenyl)-2-((thiazol-2-ylmethyl)amino)thiazole-5-carboxamide] |
| > 11 µM | W (10-<100 fold) | 1 to 11 µM | – | – | – | Cc1ccc(O)c(C)c1NC(=O)c1cnc(Nc2cc(C(C)(C)C)nn2-c2ccccc2)s1 [BAA-359, 2-((3-(tert-butyl)-1-phenyl-1H-pyrazol-5-yl)amino)-N-(3-hydroxy-2,6-dimethylphenyl)thiazole-5-carboxamide] |
| > 11 µM | Y (1000-5000 fold) | < 0.05 µM | – | – | – | Cc1ccc(O)c(C)c1NC(=O)c1cnc(NCc2cn[nH]c2)s1 [BAA-360, 2-(((1H-pyrazol-4-yl)methyl)amino)-N-(3-hydroxy-2,6-dimethylphenyl) thiazole-5-carboxamide] |
| > 11 µM | W (10-<100 fold) | 1 to 11 µM | – | – | – | Cc1ccc(O)c(C)c1NC(=O)c1cnc(NCc2nccn2C)s1 [BAA-362, N-(3-hydroxy-2,6-dimethylphenyl)-2-(((1-methyl-1H-imidazol-2-yl)methyl)amino)thiazole-5-carboxamide] |
| > 11 µM | X (100-<1000 fold) | 0.05 to 1 µM | – | – | – | Cc1cccc(CNc2ncc(C(=O)Nc3c(C)ccc(O)c3C)s2)c1O [BAA-363, N-(3-hydroxy-2,6-dimethylphenyl)-2-((2-hydroxy-3-methylbenzyl)amino)thiazole-5-carboxamide] |
| > 11 µM | W (10-<100 fold) | 1 to 11 µM | – | – | – | Cc1nc(CNc2ncc(C(=O)Nc3c(C)ccc(O)c3C)s2)no1 [BAA-364, N-(3-hydroxy-2,6-dimethylphenyl)-2-(((5-methyl-1,2,4-oxadiazol-3-yl)methyl)amino) thiazole-5-carboxamide] |
| 1 to 11 µM | X (100-<1000 fold) | < 0.05 µM | – | – | – | Cc1cn(Cc2ncco2)nc1Nc1ncc(C(=O)Nc2c(C)ccc(O)c2C)s1 [BAA-366, N-(3-hydroxy-2,6-dimethylphenyl)-2-((4-methyl-1-(oxazol-2-ylmethyl)-1H-pyrazol-3-yl)amino) thiazole-5-carboxamide] |
| > 11 µM | X (100-<1000 fold) | 0.05 to 1 µM | – | – | – | Cc1ccc(O)c(C)c1NC(=O)c1cnc(Nc2nn(C)cc2-c2ccccc2)s1 [BAA-373, N-(3-hydroxy-2,6-dimethylphenyl)-2-((1-methyl-4-phenyl-1H-pyrazol-3-yl)amino)thiazole-5-carboxamide] |
| 1 to 11 µM | X (100-<1000 fold) | < 0.05 µM | – | – | – | Cc1cn(CC(=O)N2CCC2)nc1Nc1ncc(C(=O)Nc2c(C)ccc(O)c2C)s1 [BAA-374, 2-((1-(2-(azetidin-1-yl)-2-oxoethyl)-4-methyl-1H-pyrazol-3-yl)amino)-N-(3-hydroxy-2,6-dimethylphenyl)thiazole-5-carboxamide] |
| > 11 µM | W (10-<100 fold) | 1 to 11 µM | – | – | – | Cc1ccc(O)c(C)c1NC(=O)c1cnc(Nc2c(C)cnn2Cc2cccc(F)c2)s1 [BAA-375, 2-((1-(3-Fluorobenzyl)-4-methyl-1H-pyrazol-5-yl)amino)-N-(3-hydroxy-2,6-dimethylphenyl)thiazole-5-carboxamide] |
| 1 to 11 µM | W (10-<100 fold) | 0.05 to 1 µM | – | – | – | Cc1cn(-c2cncc(C(F)(F)F)c2)nc1Nc1ncc(C(=O)Nc2c(C)ccc(O)c2C)s1 [BAA-380, N-(3-hydroxy-2,6-dimethylphenyl)-2-((4-methyl-1-(5-(trifluoromethyl)pyridin-3-yl)-1H-pyrazol-3-yl)amino)thiazole-5-carboxamide] |
| > 11 µM | X (100-<1000 fold) | 0.05 to 1 µM | – | – | – | Cc1ccc(O)c(C)c1NC(=O)c1cnc(Nc2nn(-c3ccc(C(F)(F)F)nc3)cc2Cl)s1 [BAA-382, 2-((4-chloro-1-(6-(trifluoromethyl)pyridin-3-yl)-1H-pyrazol-3-yl)amino)-N-(3-hydroxy-2,6-dimethylphenyl) thiazole-5-carboxamide] |
| 1 to 11 µM | X (100-<1000 fold) | < 0.05 µM | – | – | – | Cc1cn(-c2cncn2C)nc1Nc1ncc(C(=O)Nc2c(C)ccc(O)c2C)s1 [BAA-387, N-(3-hydroxy-2,6-dimethylphenyl)-2-((4-methyl-1-(1-methyl-1H-imidazol-5-yl)-1H-pyrazol-3-yl)amino)thiazole-5-carboxamide] |
| 1 to 11 µM | X (100-<1000 fold) | < 0.05 µM | – | – | – | Cc1c[nH]nc1Nc1ncc(C(=O)Nc2c(C)ccc(O)c2C)s1 [BAA-388, N-(3-hydroxy-2,6-dimethylphenyl)-2-((4-methyl-1H-pyrazol-3-yl)amino)thiazole-5-carboxamide] |
| > 11 µM | Y (1000-5000 fold) | < 0.05 µM | – | – | – | Cc1ccc(O)c(C)c1NC(=O)c1cnc(Nc2nn(-c3ccccc3)cc2C#N)s1 [BAA-389, 2-((4-cyano-1-phenyl-1H-pyrazol-3-yl)amino)-N-(3-hydroxy-2,6-dimethylphenyl)thiazole-5-carboxamide] |
| – | – | – | 1 to 11 µM | X (100-<1000 fold) | < 0.05 µM | Cc1cn(-c2cnn(CCO)c2)nc1Nc1ncc(C(=O)Nc2c(C)ccc(O)c2C)s1 [BAA-395, N-(3-hydroxy-2,6-dimethylphenyl)-2-((1′-(2-hydroxyethyl)-4-methyl-1′H-[1,4′-bipyrazol]-3-yl)amino)thiazole-5-carboxamide] |
| – | – | – | 1 to 11 µM | X (100-<1000 fold) | < 0.05 µM | Cc1ccc(O)c(C)c1NC(=O)c1cnc(Nc2ncccc2Cl)s1 [BAA-400, 2-((3-chloropyridin-2-yl)amino)-N-(3-hydroxy-2,6-dimethylphenyl)thiazole-5-carboxamide] |
| – | – | – | > 11 µM | Y (1000-5000 fold) | < 0.05 µM | Cc1ccc(O)c(C)c1NC(=O)c1cnc(Nc2ncc(F)cc2Cl)s1 [BAA-404, 2-((3-chloro-5-fluoropyridin-2-yl)amino)-N-(3-hydroxy-2,6-dimethylphenyl)thiazole-5-carboxamide] |
| – | – | – | > 11 µM | X (100-<1000 fold) | 0.05 to 1 µM | Cc1ccc(O)c(C)c1NC(=O)c1cnc(Nc2nc(Cl)ccc2C(F)(F)F)s1 [BAA-405, 2-((6-chloro-3-(trifluoromethyl)pyridin-2-yl)amino)-N-(3-hydroxy-2,6-dimethylphenyl)thiazole-5-carboxamide] |
| – | – | – | > 11 µM | X (100-<1000 fold) | 0.05 to 1 µM | Cc1ccc(O)c(C)c1NC(=O)c1cnc(Nc2ncccc2C#N)s1 [BAA-408, 2-((3-cyanopyridin-2-yl)amino)-N-(3-hydroxy-2,6-dimethylphenyl)thiazole-5-carboxamide] |
| – | – | – | > 11 µM | X (100-<1000 fold) | 0.05 to 1 µM | C#Cc1cccc(Nc2ncc(C(=O)Nc3c(C)ccc(O)c3C)s2)n1 [BAA-431, 2-((6-ethynylpyridin-2-yl)amino)-N-(3-hydroxy-2,6-dimethylphenyl)thiazole-5-carboxamide] |
| – | – | – | > 11 µM | Y (1000-5000 fold) | < 0.05 µM | Cc1nccc(Nc2ncc(C(=O)Nc3c(C)ccc(O)c3C)s2)n1 [BAA-434, N-(3-hydroxy-2,6-dimethylphenyl)-2-((2-methylpyrimidin-4-yl)amino)thiazole-5-carboxamide] |
| – | – | – | > 11 µM | Y (1000-5000 fold) | < 0.05 µM | Cc1ccc(O)c(C)c1NC(=O)c1cnc(Nc2ccncn2)s1 [BAA-435, N-(3-hydroxy-2,6-dimethylphenyl)-2-(pyrimidin-4-ylamino)thiazole-5-carboxamide] |
| – | – | – | > 11 µM | Z (>5000 fold) | < 0.05 µM | Cc1nc(Cl)cc(Nc2ncc(C(=O)Nc3c(C)ccc(O)c3C)s2)n1 [BAA-436, 2-((6-chloro-2-methylpyrimidin-4-yl)amino)-N-(3-hydroxy-2,6-dimethylphenyl)thiazole-5-carboxamide] |
